We go through 1 compound from ChEMBL document CHEMBL5728559, “Alkylphenyl compounds” (2021).

Each structure is given as a SMILES string. Some results are limits rather than exact numbers.

The target in experiment [1] is Sphingosine 1-phosphate receptor 3 (Homo sapiens, UniProt Q99500). Put plainly: Receptor [35S] GTPgammaS Binding Assays: Compounds were loaded in a 384 Falcon v-bottom plate (0.5 μL/well in a 11 point, 3-fold dilution). Membranes prepared from S1P1/CHO cells or EDG3-Gal5-bla HEK293T cells (EDG3 equivalent S1P3) were added to the compound plate (40 μL/well, final protein 3 μg/well) with MULTIDROP®. [35S]GTP (1250 Ci/mmol, Perkin Elmer) was diluted in assay buffer: 20 mM HEPES, pH7.5, 10 mM MgCl2, 150 mM NaCl, 1 mM EGTA(ethylene glycol tetraacetic acid), 1 mM DTT (dithiothreitol), 10 μM GDP, 0.1% fatty acid free BSA, and 10 μg/ml Saponin to 0.4 nM. 40 μL of the [35S] GTP solution was added to the compound plate with a final concentration of 0.2 nM. The reaction was kept at room temperature for 45 min. At the end of incubation, all the mixtures in the compound plate were transferred to Millipore 384-well FB filter plates via the VELOCITY11® Vprep liquid handler. The filter plate was washed with water 4 times by using the manifold Embla plate washer and dried at 60° C. for 45 min. MicroScint 20 scintillation fluid (30 μL) was added to each well for counting on the Packard TOPCOUNT®. EC50 is defined as the agonist concentration that corresponds to 50% of the Ymax (maximal response) obtained for each individual compound tested.A smaller value for GTPγS S1P1 EC50 value indicated greater activity for the compound in the GTPγS S1P1 binding assay. […]. (In general: Binding of GTPγS marks nucleotide exchange on a G protein.)

For experiment [2], the target named is Sphingosine 1-phosphate receptor 1 (Homo sapiens, UniProt P21453). Put plainly: S1P1 Binding Assay: Membranes were prepared from CHO cells expressing human S1P1. Cells pellets (1×10^9 cells/pellet) were suspended in buffer containing 20 mM HEPES (4-(2-hydroxyethyl)-1-piperazineethanesulfonic acid), pH 7.5, 50 mM NaCl, 2 mM EDTA (Ethylenediamine tetraacetic acid) and Protease Inhibitor cocktail (Roche), and disrupted on ice using the Polytron homogenizer. The homogenate was centrifuged at 20,000 rpm (48,000 g) and the supernatant was discarded. The membrane pellets were resuspended in buffer containing 50 mM HEPES, pH 7.5, 100 mM NaCl, 1 mM MgCl2, 2 mM EDTA and stored in aliquots at −80° C. after protein concentration determination.Membranes (2 μg/well) and 0.03 nM final concentration of 33P-S1P ligand (1 mCi/ml, Perkin Elmer or American Radiolabeled Chemicals) diluted in assay buffer (50 mM HEPES, pH7.4, 5 mM MgCl2, 1 mM CaCl2, 0.5% fatty acid free BSA(bovine serum albumin), 1 mM NaF) were added to the compound plates (384 Falcon v-bottom plate (0.5 μl/well in a 11 point, 3-fold dilution). Binding was performed for 45 minutes at room temperature, terminated by collecting the membranes onto 384-well Millipore FB filter plates, and radioactivity was measured by TOPCOUNT®. The competition data of the test compounds over a range of concentrations was plotted as percentage inhibition of radioligand specific binding. […].
Chain of Sphingosine 1-phosphate receptor 1 (P21453 whole entry): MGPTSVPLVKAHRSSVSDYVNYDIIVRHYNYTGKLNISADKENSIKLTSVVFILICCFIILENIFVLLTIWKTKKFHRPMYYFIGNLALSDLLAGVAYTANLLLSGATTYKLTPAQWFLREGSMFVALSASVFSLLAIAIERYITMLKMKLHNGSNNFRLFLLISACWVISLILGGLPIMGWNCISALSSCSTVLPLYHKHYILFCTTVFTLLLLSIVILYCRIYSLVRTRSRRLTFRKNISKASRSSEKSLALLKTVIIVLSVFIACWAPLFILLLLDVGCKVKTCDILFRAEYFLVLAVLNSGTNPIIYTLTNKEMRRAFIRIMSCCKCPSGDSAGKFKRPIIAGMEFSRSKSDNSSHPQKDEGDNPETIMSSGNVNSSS

Chain of Sphingosine 1-phosphate receptor 3 (Q99500 whole entry): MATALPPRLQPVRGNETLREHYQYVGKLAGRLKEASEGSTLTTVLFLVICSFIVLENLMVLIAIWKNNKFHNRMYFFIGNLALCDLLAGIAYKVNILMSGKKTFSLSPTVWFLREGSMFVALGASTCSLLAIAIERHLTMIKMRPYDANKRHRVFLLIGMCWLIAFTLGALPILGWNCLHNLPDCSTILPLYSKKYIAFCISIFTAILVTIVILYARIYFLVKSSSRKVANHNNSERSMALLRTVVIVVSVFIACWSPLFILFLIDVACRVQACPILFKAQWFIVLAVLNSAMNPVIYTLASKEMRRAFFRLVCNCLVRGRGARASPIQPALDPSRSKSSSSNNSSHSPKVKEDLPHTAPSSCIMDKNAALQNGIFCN

For orientation: EC50 means the concentration giving half of the maximal effect. Turning to `CCCCCCCCc1cc(C)c(N2CCC(N)(COP(=O)(O)O)C2=O)c(C)c1` (configuration not stated), the EC50 in experiment [1] is > 60 µM; in experiment [2], 14.4 µM.
